Among the data in patent US12202816B2 (CALLIDITAS THERAPEUTICS SUISSE SA, priority 2018, dated 2025) are Ki values, retold here.

The Ki is the dissociation constant of the complex between target and ligand, obtained from inhibition or displacement.

The assay concerns the target hNOX enzymes. Nature of the assay: ROS production measurement on hNOX membranes (Amplex Red fluorescence assay, assay 1). In kind it is biochemical, human. Conditions: membranes from CHO or HEK cells overexpressing hNox enzymes; Nox isoform not stated; non linear regression; read-out: Nox inhibitory constant Ki. The method, then:
Reactive oxygen species (ROS) production generated by hNOX enzymes was measured by fluorescence in both cellular and membrane-based assays using the Amplex® Red reagent. In the presence of horseradish peroxidase (HRP), the Amplex® Red reagent (10-acetyl-3,7-dihydroxyphenoxazine, AR), which is a colorless and nonfluorescent derivative of dihydroresorufin, reacts with H2O2 with a 1:1 stoichiometry to produce highly fluorescent resorufin at an excitation and emission wavelengths of 544 nm and 590 nm, respectively.
Membranes from CHO or HEK cells overexpressing hNox enzymes were prepared as previously described (Palicz et al., 2001, J. Biol. Chem, 76, 3090). After resuspension in sonication buffer (11% sucrose, 120 mM NaCl, 1 mM EGTA in PBS, pH 7.4), cells were broken by sonication and centrifuged (200 g, 10 min). The supernatant was layered onto a 17/40% (w/v) discontinuous sucrose gradient and centrifuged (150,000 g for 30 min). Membrane fractions were collected from the 17/40% interface, aliquoted in 10 μl samples and were stored at −80° C. Protein concentration was determined with Bradford reagent. Flavin Adenine Dinucleotide (FAD) (catalog #F6625-500MG), MgCl2 (catalog #M8266-100G), Phosphatidic Acid (PA) (catalog #P3591-50MG) were purchased from Sigma-Aldrich. Horseradish peroxidase (HRP) (catalog #10108090001) was purchased from Roche. NADPH (catalog #A1395, 0500) was purchased from Applichem. Amplex red (AR) (catalog #A22177) was purchased from Invitrogen. 96 well polypropylene and black plates were purchased from Milian (catalog #055529 and #055218, respectively). FLUOstar OPTIMA microplate reader was supplied by BMG Labtech (Germany). Zephyr® Compact Liquid Handling Workstation was supplied by PerkinElmer (Germany).
Assay 1: ROS Production Measurement on hNOX Membranes
All Solutions were placed on ice and protected from light. The final concentration in the 1× hNOX membrane fluorescent assay buffer were PBS pH7, 6 μM FAD, 15 μM PA, 1 mM MgCl2, 12.5 μM AR, 0.02 u/ml, 125 ng membranes, 1.5 μg of cofactors and 30 μM NADPH. The NADPH was dissolved in water at a concentration of 12 mM and was transferred in a metal transfer plate kept at 4° C. The NADPH was added to the assay plate to initiate the reaction just before the measurement.
Serial dilution (1:3, 10 serial dilution) of the compounds was performed in 100% DMSO in 96 well polypropylene plate—Row B—H Column 1-10, Row A, Column 1-10 contained reference compound. Starting concentration was 10^−2 M (10 mM). Final concentration in assay was 10^−4 M (100 μM). Compounds were diluted twice in PBS buffer by transferring 30 μl/well of PBS into 30 μl/well compounds sample in DMSO using Zephyr® Compact Liquid Handling Workstation. Control wells-columns 1 and 12-contained 60 μl DMSO in 50% PBS pH7.
Reaction mixture is dispensed using Zephyr® Compact Liquid Handling Workstation. 90 μl of mix with membrane were dispensed into 96 well black plates—Column 2-11, Column 1 Row A-D, Column 12 Row E-H. 90 μl of control mix were dispensed into assay plate—Column 1 Row E-H, Column 12 Row A-D, which are wells for measuring background signal. 2 μl of compounds were dispensed into each well of assay plate using Zephyr® Compact Liquid Handling Workstation. The reaction mixture with compounds was incubated in assay plates for 20 min at 37° C. in a Titramax microplate incubator with gentle agitation. 10 μl of NADPH is dispensed to the assay plate. Fluorescence reading was recorded with the FLUOstar OPTIMA microplate reader for 10 min at 37° C. (8 cycles, 1 cycle duration 55 sec).
The Table 14 below summarizes the inhibition of NOX activity as measured by the above described assay 1 and expressed by their inhibitory constant calculated by non linear regression analysis using GraphPad Prism Software (GraphPad Software Co., San Diego, CA): […]
Consider `Cc1cc(-c2cc3cc(-c4ccnc(N)c4)ccc3[nH]2)ccn1` [Example 5, 4-(2-(2-methylpyridin-4-yl)-1H-indol-5-yl)pyridin-2-amine], for which the Ki was found to be 348 nM.
The result for `COc1cncc(-c2cc3cc(-c4ccc(N5CCC56COC6)nc4)[nH]c3cc2Cl)c1` [Example 32, 1-(5-(6-chloro-5-(5-methoxypyridin-3-yl)-1H-indol-2-yl)pyridin-2-yl)-6-oxa-1-azaspiro[3.3]heptane] reads 27 nM.
Under `COc1cncc(-c2cc3cc(-c4ccc(=O)n(C)c4)[nH]c3cc2Cl)c1` [Example 57, 5-(6-chloro-5-(5-methoxypyridin-3-yl)-1H-indol-2-yl)-1-methylpyridin-2(1H)-one] stands 142 nM.
For `COc1cncc(-c2ccc3c(cc(-c4cnc5c(c4)OCCN5C)n3C)c2Cl)c1` [Example 119], the inhibition constant Ki amounted to 226 nM.
